The test system of one experiment is rat IIA-sPLA2 promoter. Nature of the experiment: sPLA2 promoter activity, luciferase reporter gene assay. The class given is cell-based. The settings on record: IL-1β (1 nM), 24 h, 10 μM compound, FIG. 2C. As to the method: (§1) Quiescent cells were stimulated with either DMEM (−), or IL-1β (1 nM) in the absence (−) or presence of AKH-217 (etOH), vehicle control. • (A) Supernatants were taken for protein precipitation and precipitated proteins were separated by SDS-PAGE and subjected to a Western blot analysis using a monoclonal antibody against rat sPLA2. […] Cells were taken for RNA extraction and subjected to quantitative PCR analysis of rat IIA-sPLA2 and 18 S RNA. ΔΔCt values were calculated and results are expressed as % of maximal IL-1β-stimulated response and are means±S.D. (n=3). • (C) Cells were transfected with the sPLA2 promoter construct plus a plasmid coding for the Renilla luciferase. After transfection, cells were stimulated for 24 h with vehicle (−), IL-1β (1 nM), or IL-1β plus 10 μM of AKH-217. sPLA2 promoter activity was calculated and results are expressed as relative luciferase units (RLU) and are means±S.D. (n=3).
It has been previously shown that the cytokine-induced PGE2 formation in mesangial cells involves both sPLA2 and cPLA2 activation (Pfeilschifter et al., 1993), we then investigated the effect of the inhibitors above on sPLA2 protein and mRNA expressions. […] This effect on sPLA2 mRNA expression was due to a reducing effect on gene transcription. This was shown by a luciferase reporter gene assay that reflected sPLA2 promoter activity. […]
On the technique in general: A reporter such as luciferase makes a cellular process visible.

The next experiment concerns phospho-p65 (NFκB). As to the kind of experiment: NFκB activation, Western blot of phospho-p65. The class given is cell-based, rat. The settings on record: IL-1β (2 nM) 30 min, 10 μM compound pretreated 2 h, FIG. 6. As to the method: Quiescent cells were stimulated for 30 min with either vehicle (DMEM), or IL-1β (2 nM) in the absence (−) or presence (+) of AVX001 or AVX002 (10 μM, pretreated 2 h). Thereafter, cell lysates were separated by SDS-PAGE and subjected to a Western blot analysis using a polyclonal antibody against phospho-p65 (NFκB) (upper panel), HuR as a loading control (middle panel), and IκB (lower panel). Data in FIG. 6A show duplicates of one representative experiments. FIGS. 6B and C show the densitometric evaluation of NFκB and IκB bands.
NFκB activation was measured by Western blot analyses by detecting the amount of phospho-p65 which represents the active transcription factor subunit.
(A western blot detects proteins with antibodies after separation by electrophoresis.)

For the next experiment, the system named is iNOS. Nature of the experiment: iNOS protein expression, Western blot. The class given is cell-based, rat. The settings on record: mesangial cells, IL-1β (1 nM), FIG. 4A. As to the method: (§2) Quiescent cells were stimulated with either vehicle (DMEM), IL-1β (1 nM), in the absence (−) or presence of the indicated concentrations (in μM) of AVX001 and AVX002. EtOH, vehicle control.(A) Cells were taken for protein extraction and equal amount of protein were separated by SDS-PAGE and subjected to a Western blot analysis using a polyclonal antibody against iNOS at a dilution of 1:2000. Data are representative of at least 3 independent experiments giving similar results. (B). Cells were taken for RNA extraction and subjected to quantitative PCR analysis of rat iNOS and 18 S RNA. ΔΔCt values were calculated and results are expressed as % of maximal IL-1β response and are means±S.D (n=3). • (C) Cells were transfected with the rat iNOS promoter construct plus a plasmid coding for the Renilla luciferase. After transfection, cells were stimulated with vehicle (−), IL-1β (1 nM), or IL-1β plus 10 μM of AVX001. iNOS promoter activity was calculated and results are expressed as relative luciferase units (RLU) and are means±S.D. (n=3).
(§3) To see whether this effect is due to altered gene transcription of iNOS, luciferase reporter gene assays were performed to measure iNOS promoter activity. A 4.5 kb fragment of the rat iNOS promoter was kindly provided by Dr. K. F. Beck (pharmazentrum frankfurt).

The next experiment concerns IIA-sPLA2 mRNA. Nature of the experiment: IIA-sPLA2 mRNA expression, quantitative PCR. The experiment is classed as cell-based, rat. Conditions: mesangial cells, IL-1β (1 nM), FIG. 2B. As to the method:
as §1
(§4) It has been previously shown that the cytokine-induced PGE2 formation in mesangial cells involves both sPLA2 and cPLA2 activation (Pfeilschifter et al., 1993), we then investigated the effect of the inhibitors above on sPLA2 protein and mRNA expressions. […] This effect on sPLA2 mRNA expression was due to a reducing effect on gene transcription. This was shown by a luciferase reporter gene assay that reflected sPLA2 promoter activity.

Another experiment has as its system IIA-sPLA2. Nature of the experiment: IIA-sPLA2 protein expression and secretion, Western blot of supernatants. The experiment is classed as cell-based, rat. The settings on record: mesangial cells, IL-1β (1 nM), FIG. 2A. As to the method:
as §1, §4

The subject of the next experiment is rat iNOS promoter. As to the kind of experiment: iNOS promoter activity, luciferase reporter gene assay. The settings on record: IL-1β (1 nM), 10 μM compound, FIG. 4C. The class given is cell-based. As to the method:
as §2, §3

Experiment [1] concerns rat renal mesangial cells. As to the kind of experiment: cytokine-stimulated NO formation in mesangial cells (Griess Reaction assay). The class given is cell-based. The settings on record: IL-1β (1 nM), FIG. 3. As to the method: Quiescent cells were stimulated with either DMEM (−), IL-1β (1 nM; +), in the absence or presence of the indicated concentrations of AKH-217, AVX002, or AACOCF3. Supernatants were collected and taken for nitric oxide (NO) quantification by using a Griess Reaction assay. Data are expressed as μM of NO in the supernatant and are means±S.D. (n=3).
as §3
Background: Griess reagent forms a coloured azo dye with nitrite.

In a further experiment the test system is mesangial cells. As to the kind of experiment: [3H]thymidine incorporation in mesangial cells (proliferation). The class given is cell-based, rat. The settings on record: 24 h; ATP 100 μM, insuline 100 ng/ml or IGF 50 ng/ml, FIGS. 5A and 5B. As to the method: Quiescent cells were stimulated for 24 h with vehicle (DMEM), or 100 μM of ATP in the absence (−) or presence of the indicated concentrations of AVX001 or AVX002, in the presence of [^3H]thymidine. • (B) Cells were stimulated for 24 h with insuline (100 ng/ml) or IGF (50 ng/ml) in the absence (−) or presence of 10 μM of AVX001 or AVX002, in the presence of [^3H]thymidine. Thymidine incorporated into DNA was determined and results are expressed as % of control and are means±S.D. (n=3). Glomerulonephritis is characterized in a first early phase by increased mesangial apoptosis which in a second phase is replaced by an opposite event, i.e. hyperproliferation of mesangial cells. Many previous studies have shown that quiescent mesangial cells in culture can re-enter the cell cycle when exposed to various growth factors, including PDGF, insulin, insulin-like growth factor (IGF), or extracellular nucleotides such as ATP and UTP. […] In the presence of either AKH217 or AVX002, agonist-stimulated [^3H]thymidine incorporation is reduced (FIGS. 5A and 5B). Similar data were also obtained when cells were stimulated with PDGF.

SMILES strings stand for the structures.

Turning to `CC/C=C\C/C=C\C/C=C\C/C=C\CC/C=C/CSCC(=O)C(F)(F)F` [AKH-217], in the experiment with rat IIA-sPLA2 promoter, the “IL-1β-stimulated sPLA2 promoter activity” value is “completely reduced”. In addition, in the experiment on phospho-p65 (NFκB), the “IL-1β-induced increase of phospho-p65” value is on record as “reduced”. Besides, the “protein expression of iNOS induced by IL-1β” value in the experiment with iNOS is listed as “down-regulated”. Moreover, in the experiment with IIA-sPLA2 mRNA, the “IIA-sPLA2 mRNA expression” value was “reduce”. In addition, the “IIA-sPLA2 protein expression and secretion” value in the experiment with IIA-sPLA2 is listed as “reduce”. Besides, in the experiment on rat iNOS promoter, the “IL-1β-stimulated iNOS promoter activity” value is recorded as “completely lost”. Further, in experiment [1], the “IL-1β-stimulated NO formation” value is given as “reduced in a dose-dependent manner”. In addition, the “agonist-stimulated [3H]thymidine incorporation” value with mesangial cells is “reduced”.
`CC/C=C\C/C=C\C/C=C\C/C=C\C/C=C\CCSCC(=O)C(F)(F)F` [AVX002]: the “protein expression of iNOS induced by IL-1β” value in the experiment with iNOS is on record as “down-regulated”. Moreover, in experiment [1], the “IL-1β-stimulated NO formation” value is recorded as “reduced in a dose-dependent manner”. In the experiment on mesangial cells, the “agonist-stimulated [3H]thymidine incorporation” value is “reduced”.

The record behind these values is patent US20120136066A1, “Glomerulonephritis Treatment” (AVEXXIN AS, priority 2009, published 2012).
